Experimental data: patent publication US20210401821A1, “PROPHYLACTIC OR THERAPEUTIC AGENT AND MEDICINAL COMPOSITION FOR IL-31-MEDIATED DISEASE” (Kyushu University, National University Corporation, priority 2018, published 2021)

Key:
[1] = tested on: wild-type C57BL/6 mice; assay: Scratching behavior induced by IL-31 after NK3R antagonist administration; type: in vivo, mouse; conditions: 45 minutes before intradermal IL-31 (1 μg/50 μl)
Method: (§1) Prior to the experiments, mice were placed in an acrylic cage (11 cm×14 cm×20 cm) for at least 1 hour to acclimatize to the environment. Subsequently, 50 μL of a pruritus-inducing substance dissolved in sterilized physiological saline was injected intradermally into shoulders of the mice, and the behavior of these mice was videotaped. The total number of scratching behavior within a specified time was determined by playing the video. During the scratching behavior of a mouse, the mouse extends its hind leg to the itchy area, tilts its head toward the hind leg, quickly turns the hind leg several times, and returns the hind leg to the ground. These series of actions were counted as one scratching behavior. As pruritus-inducing substances. IL-31 (1 μg/50 μl; PeproTech Inc.). SLIGRL-NH2 (100 μg/50 μl; Bachem Holding AG), chloroquine (100 μg/50 μl; Wako Pure Chemical Industries.), and histamine (100 μg/50 μl; Wako Pure Chemical Industries.) were used.
(§2) In some experiments, the actions of NK3R antagonists on the scratching behavior of the mice were investigated. As compounds having activity as an NK3R antagonist or an NK3R antagonist, osanetant (Axon Medchem.), talnetant (NAMIKI SHOJI Co., Ltd.), pavinetant (NAMIKI SHOJI Co., Ltd.), fezolinetant (Haoyuan Chemexpress Co., Ltd.). SSR-146977 (Tocris Bioscience.), SSR-241586 (WuXi AppTec New Drug Development Co. Ltd.), SB-235375 (WuXi AppTec New Drug Development Co. Ltd.), and CS-003 (WuXi AppTec New Drug Development Co. Ltd.) were used. These compounds were administered to the mice in a predetermined amount per weight of each mouse 45 minutes before the intradermal injection of the pruritus-inducing substance. Osanetant was dissolved in phosphate buffered saline (PBS) containing 0.1% Tween-20 and intraperitoneally injected at 5 mg/kg. Talnetant and pavinetant were dissolved in a mixture of 10% dimethyl sulfoxide (DMSO), 40% polyethylene glycol 300, 5% Tween-80, and 45% saline and were intraperitoneally injected at 30 mg/kg. Fezolinetant was dissolved in PBS containing 10% DMSO and orally administered at 10 mg/kg. SSR-146977 was dissolved in PBS containing 0.1% ethanol and intraperitoneally injected at 0.3 mg/kg. SSR-241586 was dissolved in a 0.01% Tween-80 aqueous solution and intraperitoneally injected at 3 mg/kg. SB-235375 was dissolved in PBS and orally administered at 3 mg/kg. CS-003 was dissolved in PBS containing 5% glucose and intravenously injected at 3 mg/kg.
(§3) Similar to osanetant, fezolinetant that is a selective antagonist of NK3R was orally administered to wild-type C57BL/6 mice, and the effect on the scratching behavior induced by IL-31, histamine, or chloroquine was analyzed.
(§4) Furthermore, CS-003 that is an antagonist to neurokinin 3 receptor (NK3R) and also an antagonist to neurokinin 1 receptor (NK1R) and neurokinin 2 receptor (NK2R), and SSR-241586 that is an antagonist to NK3R and NK2R were administered to wild-type C57BL/6 mice, and then the effects of the compounds on the scratching behavior induced by IL-31 or chloroquine were analyzed.

[2] = tested on: wild-type C57BL/6 mice; assay: Scratching behavior induced by chloroquine after NK3R antagonist administration; type: in vivo, mouse; conditions: 45 minutes before intradermal chloroquine (100 μg/50 μl)
Method: as §1, §2, §3, §4

[3] = tested on: wild-type C57BL/6 mice; assay: Scratching behavior induced by histamine after NK3R antagonist administration; type: in vivo, mouse; conditions: 45 minutes before intradermal histamine (100 μg/50 μl)
Method: as §1
In some experiments, the actions of NK3R antagonists on the scratching behavior of the mice were investigated. […]
as §3

[4] = tested on: Grp mRNA; assay: Grp mRNA expression in stimulated DRG neurons in vitro; type: cell-based, mouse; conditions: DRG neurons from wild-type C57BL/6 mice stimulated with NKB in vitro; FIG. 4(b)
Method: (§5) Total RNAs were extracted from each tissue using ISOGEN (NIPPON GENE CO., LTD.). Total RNAs were treated with RNase-free DNase I (Thermo Fisher Scientific K.K.). This RNA sample was reverse transcribed using an oligo (dT) primer (v) and SuperScript III reverse transcriptase (Thermo Fisher Scientific K.K.), and amplified by PCR. Real-time PCR was performed by Cfx Connect™ Thermal Cycler (Bio-Rad Laboratories, Inc.) using SYBR Green PCR Master Mix (Applied Biosystems). The expression level of the target gene was normalized by an expression level of Hprt gene. For the analysis, CFX Manager (ver3.1) attached to a device was used.
(§6) Changes in the expression levels of Tac2, Grp. and Nppb through administration of IL-31 or NKB were analyzed. First. DRG neurons isolated from the wild-type C57BL/6 mice were stimulated by the addition of the IL-31 protein in vitro, and the expression levels of Tac2 mRNA, Grp mRNA, and Nppb mRNA were analyzed.
(§7) Next, DRG neurons isolated from the wild-type C57BL/6 mice were stimulated by neurokinin B (NKB) in vitro, and the expression levels of Grp mRNA and Nppb mRNA were analyzed.

[5] = tested on: Tac2−/− (Δ4) mice; assay: Scratching behavior after injecting NKB into medullary cavities; type: in vivo, mouse; conditions: FIG. 10(a)
Method: Next, in order to identify the site where NKB was functioning. NKB was injected into medullary cavities of Tac2^−/− (Δ4) mice, and scratching behavior was analyzed.

[6] = tested on: Nppb mRNA; assay: Nppb mRNA expression in stimulated DRG neurons in vitro; type: cell-based, mouse; conditions: DRG neurons from wild-type C57BL/6 mice stimulated with NKB in vitro; FIG. 4(b)
Method: as §5, §6, §7

[7] = SSR-241586 3 mg/kg intraperitoneal, CS-003 3 mg/kg intravenous, FIGS. 16(a), 17(a)
[8] = 30 mg/kg intraperitoneal, FIGS. 13(b), 14(b)
[9] = 30 mg/kg intraperitoneal, FIGS. 13(a), 14(a)

COc1cc(C(=O)N2CCO[C@](CCN3CCC4(CC3)c3ccccc3C[S@+]4[O-])(c3ccc(Cl)c(Cl)c3)C2)cc(OC)c1OC [CS-003]
frequency of scratching behavior induced by IL-31 [1, 7]: suppressed

CC[C@H](NC(=O)c1c(OCC(=O)O)c(-c2ccccc2)nc2ccccc12)c1ccccc1 [SB-235375, 2-[2-phenyl-4-[N-[1 (S)-phenylpropyl]carbamoyl]quinoline-3-yloxy]acetic acid]
frequency of scratching behavior by chloroquine ([2]; 3 mg/kg oral, FIG. 18(b)): did not decrease | frequency of scratching behavior induced by IL-31 ([1]; 3 mg/kg oral, FIG. 18(a)): did decrease

CN(C)C(=O)C1(N2CCCCC2)CCN(CC[C@@]2(c3ccc(Cl)c(Cl)c3)CN(C(=O)c3ccccc3)CCO2)CC1 [SSR-241586, (+)-1′-[2-[4-benzoyl-2(R)-(3,4-dichlorophenyl)morpholine-2-yl]ethyl]-N,N-dimethyl-1,4′-bipiperidin-4′-carboxamide]
frequency of scratching behavior induced by IL-31 [1, 7]: suppressed

Cc1nsc(-c2nnc3n2CCN(C(=O)c2ccc(F)cc2)[C@@H]3C)n1 [fezolinetant, (4-fluorophenyl)-[(8R)-8-methyl-3-(3-methyl-1,2,4-thiadiazole-5-yl)-6,8-dihydro-5H-[1,2,4]triazolo[4,3-a]pyrazine-7-yl]-methanone]
frequency of scratching behavior by chloroquine ([2]; fezolinetant 10 mg/kg oral, FIG. 12(c)): did not decrease | frequency of scratching behavior by IL-31 ([1]; fezolinetant 10 mg/kg oral, FIG. 12(a)): decreased | frequency of scratching behavior by histamine ([3]; fezolinetant 10 mg/kg oral, FIG. 12(b)): did not decrease

CC(=O)N(C)C1(c2ccccc2)CCN(CCC[C@]2(c3ccc(Cl)c(Cl)c3)CCCN(C(=O)c3ccccc3)C2)CC1 [osanetant, N-[1-[3-[(3R)-1-benzoyl-3-(3,4-dichlorophenyl)piperidine-3-yl)propyl)-4-phenylpiperidine-4-yl]-N-methyl acetamide]
frequency of scratching behavior by chloroquine ([2]; osanetant 5 mg/kg intraperitoneal, FIG. 11(e)): did not decrease | frequency of scratching behavior by IL-31 ([1]; osanetant 5 mg/kg intraperitoneal, FIG. 11(c)): decreased | frequency of scratching behavior by histamine ([3]; osanetant 5 mg/kg intraperitoneal, FIG. 11(d)): did not decrease

CC[C@H](NC(=O)c1c(NS(C)(=O)=O)c(-c2ccccc2)nc2ccccc12)c1ccccc1 [pavinetant]
frequency of scratching behavior by chloroquine [2, 8]: did not decrease | frequency of scratching behavior induced by IL-31 [1, 9]: did decrease

CC[C@H](NC(=O)c1c(O)c(-c2ccccc2)nc2ccccc12)c1ccccc1 [talnetant, N-(α-ethylbenzyl)-3-hydroxy-2-phenylquinoline-4-carboxamide]
frequency of scratching behavior by chloroquine [2, 8]: did not decrease | frequency of scratching behavior induced by IL-31 [1, 9]: did decrease

NKB: mature neurokinin B, neuropeptide from PPT-3 (Tac2 gene), SEQ ID NO: 2; binds neurokinin receptor 3 (DMHDFFVGLM; listed as Homo sapiens)
expression level of Grp mRNA [4]: increased | scratching behavior after intramedullary injection of NKB [5]: induced the scratching behavior | expression level of Nppb mRNA [6]: increased
